Read-outs that look alike come from different tables or passages of the source.
Tests used:
Format in all cases: cell-based
[1] = system: Dengue serotype 2 New Guinea C (NGC) strain; experiment: DENV-2 Huh-7 EC50 (qPCR in Huh7 cells)
Outline: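 Huh7 cells infected 2 h at 37 °C with DENV-2 NGC at MOI 0.1, then plated with graded compound doses (0.25% DMSO) in triplicate. After 48 h, viral RNA quantified by duplex TaqMan RT-qPCR against GAPDH; EC50 normalized to positive control and no-compound wells.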

HCV replicon 2A = experiment: HCV Rep 2A EC50 (replicon luciferase)
Protocol: (§1) Compounds were serially diluted in ten steps of 1:3 dilutions in 384-well plates. All serial dilutions were performed in four replicates per compound within the same 384-well plate. […] To each well of a black polystyrene 384-well plate (Greiner Bio-one, Monroe, NC), 90 μL of cell culture medium (without Geneticin) containing 2000 suspended HCV replicon cells was added with a Biotek μFlow workstation. For compound transfer into cell culture plates, 0.4 μL of compound solution from the compound serial dilution plate was transferred to the cell culture plate on a Biomek FX workstation. The DMSO concentration in the final assay wells was 0.44%. The plates were incubated for 3 days at 37° C. with 5% CO2 and 85% humidity. The HCV replicon assay was a multiplex assay, able to assess both cytotoxicity and antireplicon activity from the same well. The CC50 assay was performed first. The media in the 384-well cell culture plate was aspirated, and the wells were washed four times with 100 μL of PBS each, using a Biotek ELX405 plate washer. A volume of 50 μL of a solution containing 400 nM calcein AM (Anaspec, Fremont, CA) in 1×PBS was added to each well of the plate with a Biotek μFlow workstation. The plate was incubated for 30 min at room temperature before the fluorescence signal (excitation 490 nm, emission 520 nm) was measured with a Perkin-Elmer Envision plate reader. The EC50 assay was performed in the same wells as the CC50 assay. The calcein-PBS solution in the 384-well cell culture plate was aspirated with a Biotek ELX405 plate washer. A volume of 20 μL of Dual-Glo luciferase buffer (Promega, Madison, WI) was added to each well of the plate with a Biotek μFlow Workstation. The plate was incubated for 10 min at room temperature. A volume of 20 μL of a solution containing a 1:100 mixture of Dual-Glo Stop & Glo substrate (Promega, Madison, WI) and Dual-Glo Stop & Glo buffer (Promega, Madison, WI) was added to each well of the plate with a Biotek μFlow Workstation. The plate was then incubated at room temperature for 10 min before the luminescence signal was measured with a Perkin-Elmer Envision Plate Reader.

HCV replicon 1B = experiment: HCV Rep 1B EC50 (replicon luciferase)
Protocol: as §1

[2] = system: Dengue 2, New Guinea strain (NGC); experiment: DENV-2 moDC EC50 (qPCR in human monocyte-derived dendritic cells); conditions: moDCs
Protocol: Human monocyte-derived dendritic cells (moDCs) were derived from CD14+ monocytes (AllCells) cultured in Human Mo-DC Differentiation medium containing GM-CSF and IL-4 (Miltenyi Biotec). On day 7, moDCs were harvested by mechanical disruption, washed and suspended in serum-free RPMI. moDCs were infected with Vero-derived Dengue 2, New Guinea strain (NGC) at a MOI=0.1 for two hours in serum-free RPMI with gentle agitation at 37° C. Cells were washed and resuspended in 10% serum-containing RPMI (Gibco, supplemented with sodium pyruvate, NEAA, Penicillin-Streptomycin). 10^5 cells were plated in triplicate in 96-well plates with compounds dispensed at graded doses (Hewlett-Packard D300 Digital Dispenser). All wells were normalized to 0.25% DMSO. At 48 hours, cells were washed with 1×PBS and all supernatants removed. Total RNA was extracted using RNEasy 96 plates (Qiagen) and used to generate first-strand cDNA using XLT cDNA 5× Supermix (QuantaBio). cDNA was used as a template in a Taqman qPCR duplex reaction specific to DENV2 viral and GAPDH gene expression. EC50 values were determined using Prism Graphpad software, with normalization to a positive control and no compound negative control wells.

[3] = Dengue virus, DENV2, Huh-7, 48 h
[4] = Hepatitis C virus, 72 h, read-out: HCV Rep 2A EC50, replicon cells, 3 days
[5] = Hepatitis C virus, 72 h, read-out: HCV Rep 1B EC50, replicon cells, 3 days
[6] = read-out: HCV Rep 2A EC50, replicon cells, 3 days
[7] = read-out: HCV Rep 1B EC50, replicon cells, 3 days
[8] = Dengue virus, DENV2, Dendritic cell, 48 h

CCC(CC)COC(=O)[C@H](CC)NP(=O)(OC[C@@]1(C#N)O[C@@H](c2ccc3c(N)ncnn23)[C@H](O)[C@@H]1O)Oc1ccccc1 (mixture of isomers) [Example 88, (2S)-2-ethylbutyl 2-(((((2R,3S,4R,5S)-5-(4-aminopyrrolo[2,1-f][1,2,4]triazin-7-yl)-2-cyano-3,4-dihydroxytetrahydrofuran-2-yl)methoxy)(phenoxy)phosphoryl)amino)butanoate]
EC50 [1, 3]: > 25 µM | EC50 (HCV replicon 2A; [4]): 27.7 µM | EC50 (HCV replicon 1B; [5]): 23.7 µM

C[C@H](NP(=O)(OC[C@@]1(C#N)O[C@@H](c2ccc3c(N)ncnn23)[C@H](O)[C@@H]1O)Oc1ccccc1)C(=O)OCC1CCCCC1 (single isomer, unassigned) [Example 247]
EC50 [1, 3]: 1.28 µM | EC50 (HCV replicon 2A; [4]): 1.68 µM | EC50 (HCV replicon 1B; [5]): 0.665 µM

C[C@H](NP(=O)(OC[C@@]1(C#N)O[C@@H](c2ccc3c(N)ncnn23)[C@H](O)[C@@H]1O)Oc1ccccc1)C(=O)OCC1CCCCC1 (single isomer, unassigned) [Example 248]
EC50 ([1]; 48 hours): 0.756 µM | EC50 (HCV replicon 2A; [6]): 1.18 µM | EC50 (HCV replicon 1B; [7]): 0.503 µM

C[C@H](NP(=O)(OC[C@@]1(C#N)O[C@@H](c2ccc3c(N)ncnn23)[C@H](O)[C@@H]1O)Oc1ccccc1)C(=O)OCCC(C)(C)C (single isomer, unassigned) [Example 252]
EC50 [1, 3]: 0.697 µM | EC50 (HCV replicon 2A; [4]): 1.65 µM | EC50 (HCV replicon 1B; [5]): 0.624 µM | EC50 [2, 8]: 0.284 µM

C[C@H](NP(=O)(OC[C@@]1(C#N)O[C@@H](c2ccc3c(N)ncnn23)[C@H](O)[C@@H]1O)Oc1ccccc1)C(=O)OCCC(C)(C)C (single isomer, unassigned) [Example 253]
EC50 ([1]; 48 hours): 0.489 µM | EC50 (HCV replicon 2A; [6]): 0.887 µM | EC50 (HCV replicon 1B; [7]): 0.452 µM | EC50 ([2]; 48 hours): 0.429 µM

C[C@H](NP(=O)(OC[C@@]1(C#N)O[C@@H](c2ccc3c(N)ncnn23)[C@H](O)[C@@H]1O)Oc1ccccc1)C(=O)OC1CCCCC1 (stereo partly drawn) [Example 4, (2S)-cyclohexyl 2-(((((2R,3S,4R,5S)-5-(4-aminopyrrolo[2,1-f][1,2,4]triazin-7-yl)-2-cyano-3,4-dihydroxytetrahydrofuran-2-yl)methoxy)(phenoxy)phosphoryl)amino)propanoate]
EC50 (HCV replicon 2A; [4]): 9.2 µM | EC50 (HCV replicon 1B; [5]): 52.7 µM

CCOC(=O)[C@H](C)N[P@](=O)(OC[C@@]1(C#N)O[C@@H](c2ccc3c(N)ncnn23)[C@H](O)[C@@H]1O)Oc1ccccc1 [Example 29, Ethyl ((S)-(((2R,3S,4R,5S)-5-(4-aminopyrrolo[2,1-f][1,2,4]triazin-7-yl)-2-cyano-3,4-dihydroxytetrahydrofuran-2-yl)methoxy)(phenoxy)phosphoryl)-L-alaninate]
EC50 [1, 3]: 1.89 µM | EC50 [2, 8]: > 5 µM

COC(=O)[C@H](C)N[P@](=O)(OC[C@@]1(C#N)O[C@@H](c2ccc3c(N)ncnn23)[C@H](O)[C@@H]1O)Oc1ccccc1 [Example 52, methyl ((S)-(((2R,3S,4R,5S)-5-(4-aminopyrrolo[2,1-f][1,2,4]triazin-7-yl)-2-cyano-3,4-dihydroxytetrahydrofuran-2-yl)methoxy)(phenoxy)phosphoryl)-L-alaninate]
EC50 [1, 3]: 5.48 µM | EC50 (HCV replicon 2A; [4]): 7.46 µM | EC50 (HCV replicon 1B; [5]): 3.96 µM

C[C@H](NP(=O)(OC[C@@]1(C#N)O[C@@H](c2ccc3c(N)ncnn23)[C@H](O)[C@@H]1O)Oc1ccccc1)C(=O)OCC(C)(C)C (stereo partly drawn) [Example 92, (2S)-neopentyl 2-(((((2R,3S,4R,5S)-5-(4-aminopyrrolo[2,1-f][1,2,4]triazin-7-yl)-2-cyano-3,4-dihydroxytetrahydrofuran-2-yl)methoxy)(phenoxy)phosphoryl)amino)propanoate]
EC50 (HCV replicon 2A; [4]): 2.91 µM | EC50 (HCV replicon 1B; [5]): 16.5 µM

C[C@H](N[P@](=O)(OC[C@@]1(C#N)O[C@@H](c2ccc3c(N)ncnn23)[C@H](O)[C@@H]1O)Oc1ccccc1)C(=O)OCC(C)(C)C [Example 94]
EC50 ([1]; 48 hours): 0.451 µM | EC50 (HCV replicon 2A; replicon cells, 3 days, read-out: HCV Rep 2A EC50): 0.493 µM | EC50 (HCV replicon 1B; replicon cells, 3 days, read-out: HCV Rep 1B EC50): 0.278 µM | EC50 ([2]; 48 hours): 0.398 µM

CCCCCCOC(=O)[C@H](C)NP(=O)(OC[C@@]1(C#N)O[C@@H](c2ccc3c(N)ncnn23)[C@H](O)[C@@H]1O)Oc1ccccc1 (stereo partly drawn) [Example 192, hexyl ((((2R,3S,4R,5S)-5-(4-aminopyrrolo[2,1-f][1,2,4]triazin-7-yl)-2-cyano-3,4-dihydroxytetrahydrofuran-2-yl)methoxy)(phenoxy)phosphoryl)-L-alaninate]
EC50 [1, 3]: 2.76 µM | EC50 [2, 8]: 0.534 µM

C[C@H](NP(=O)(OC[C@@]1(C#N)O[C@@H](c2ccc3c(N)ncnn23)[C@H](O)[C@@H]1O)Oc1cccc2ccccc12)C(=O)OC1CCCCC1 (stereo partly drawn) [Example 203, cyclohexyl ((((2R,3S,4R,5S)-5-(4-aminopyrrolo[2,1-f][1,2,4]triazin-7-yl)-2-cyano-3,4-dihydroxytetrahydrofuran-2-yl)methoxy)(naphthalen-1-yloxy)phosphoryl)-L-alaninate]
EC50 [1, 3]: 1.73 µM | EC50 (HCV replicon 2A; [4]): 0.671 µM | EC50 (HCV replicon 1B; [5]): 0.332 µM | EC50 [2, 8]: 0.599 µM

C[C@H](NP(=O)(OC[C@@]1(C#N)O[C@@H](c2ccc3c(N)ncnn23)[C@H](O)[C@@H]1O)Oc1ccccc1)C(=O)OCCC(C)(C)C (stereo partly drawn) [Example 251, 3,3-dimethylbutyl ((((2R,3S,4R,5S)-5-(4-aminopyrrolo[2,1-f][1,2,4]triazin-7-yl)-2-cyano-3,4-dihydroxytetrahydrofuran-2-yl)methoxy)(phenoxy)phosphoryl)-L-alaninate]
EC50 [1, 3]: 0.529 µM | EC50 (HCV replicon 2A; [4]): 1.11 µM | EC50 (HCV replicon 1B; [5]): 0.595 µM | EC50 [2, 8]: 0.116 µM

CCC(C)(C)COC(=O)[C@H](C)NP(=O)(OC[C@@]1(C#N)O[C@@H](c2ccc3c(N)ncnn23)[C@H](O)[C@@H]1O)Oc1ccccc1 (stereo partly drawn) [Example 254, 2,2-dimethylbutyl ((((2R,3S,4R,5S)-5-(4-aminopyrrolo[2,1-f][1,2,4]triazin-7-yl)-2-cyano-3,4-dihydroxytetrahydrofuran-2-yl)methoxy)(phenoxy)phosphoryl)-L-alaninate]
EC50 [1, 3]: 0.797 µM | EC50 (HCV replicon 2A; [4]): 0.787 µM | EC50 (HCV replicon 1B; [5]): 0.368 µM | EC50 [2, 8]: 0.09 µM
